1 compound from US20070213303A1, “Methods for reducing platelet activation and for the treatment of thrombotic events” (priority 2005, published 2007) can be followed below.

The test has as its system platelets. Nature of the test: Conventional platelet aggregation induced by ADP. Type of test: cell-based, human. How it is done: Trisodium citrate (3.8%) and whole blood is immediately mixed in a 1:9 ratio, and then centrifuged at 1200 g for 2.5 minutes, to obtain platelet-rich plasma (PRP), which is kept at room temperature for use within 1 hour for platelet aggregation studies. Platelet count is determined in each PRP sample with a Coulter Counter ZM (Coulter Co., Hialeah, Fla.). Platelet numbers are adjusted to 3.50×10^8/ml for aggregation with homologous platelet-poor plasma. PRP and whole blood aggregation tests are performed simultaneously. Whole blood is diluted 1:1 with the 0.5 ml PBS, and then swirled gently to mix. The cuvette with the stirring bar is placed in the incubation well and allowed to warm to 37° C. for 5 minutes. Then the samples are transferred to the assay well. An electrode is placed in the sample cuvette. Platelet aggregation is stimulated with 5 μM ADP, 1 μg/ml collagen, and 0.75 mM arachidonic acid. All agonists are obtained, e.g., from Chronolog Corporation (Hawertown, Pa.). Platelet aggregation studies are performed using a Chrono-Log Whole Blood Lumi-Aggregometer (model 560-Ca). Platelet aggregability is expressed as the percentage of light transmittance change from baseline using platelet-poor plasma as a reference at the end of recording time for plasma samples, or as a change in electrical impedance for whole blood samples. Aggregation curves are recorded for 4 minutes and analyzed according to internationally established standards using Aggrolink® software.
The effect of doses (15 μg/ml to 90 μg/ml) of Compound A on in vitro platelet characteristics in subjects with multiple factors for vascular disease was tested.
The in vitro effects of pre-incubation with escalating concentrations of Compound A on platelet aggregation, and expression of major surface receptors by flow cytometry, were assessed in 20 aspirin naïve volunteers with multiple risk factors for vascular disease.

`CC(C)(Sc1cc(C(C)(C)C)c(O)c(C(C)(C)C)c1)Sc1cc(C(C)(C)C)c(OC(=O)CCC(=O)O)c(C(C)(C)C)c1` [Compound A]: the “Conventional platelet aggregation, ADP 5 μM” value (preincubation 15 μg/mL) was found to be 39.95 ± 11.9%; the “Conventional platelet aggregation, ADP 5 μM” value (preincubation 30 μg/mL) is listed as 40.4 ± 6.9%; the “Conventional platelet aggregation, ADP 5 μM” value (preincubation 60 μg/mL) worked out at 42.05 ± 7.2%; the “Conventional platelet aggregation, ADP 5 μM” value (preincubation 90 μg/mL) was 42.65 ± 6.3%. The “platelet aggregation induced by ADP” value (pretreatment of blood samples with 15-30-60-90 μg/ml) was “uniformed significant inhibition”.
